Ten compounds from ChEMBL document CHEMBL5385918, “Aculeatiols A-G: Lovastatin Derivatives Extracted from Aspergillus aculeatus” (2024) can be followed below.

For assay [1], the system named is HepG2. Nature of the assay: Anti-lipid accumulation activity in human HepG2 cells assessed as reduction in FFA-induced intracellular lipid level pretreated with compound for 48 hrs followed by FFA addition and measured after 48 hrs. It counts as functional, cell-based. To be noted: time 96.0 hrs.
Assay [2] relates to HepG2. Kind of assay: Anti-lipid accumulation activity in human HepG2 cells assessed as reduction in FFA-induced intracellular lipid level at 10 uM pretreated with compound for 48 hrs followed by FFA addition and measured after 48 hrs. Details: scale not given: the % may be the effect or the level left. The format is functional. The conditions noted are these: time 96 hrs.
Assay [3] deals with HepG2. Kind of assay: Anti-lipid accumulation activity in human HepG2 cells assessed as reduction in FFA-induced number of lipid droplets at 5 to 10 uM pretreated with compound for 24 hrs followed by FFA addition and measured after 48 hrs by oil red O staining based analysis. The conditions noted are these: dose 5-10 µM, time 72.0 hrs. It counts as functional, cell-based.
In assay [4] the test system is HepG2. Nature of the assay: Anti-lipid accumulation activity in human HepG2 cells assessed as reduction in FFA-induced intracellular triglyceride content incubated for 24 hrs. It counts as functional, cell-based. The conditions noted are these: dose 5-10 µM.
Assay [5] has as its system HepG2. Nature of the assay: Downregulation of FATP2 mRNA expression in FFA-induced human HepG2 cells at 5 to 10 uM pretreated with compound for 24 hrs followed by FFA-induction and measured after 24 hrs by qRT-PCR analysis. It counts as functional, cell-based. To be noted: dose 5-10 µM, time 48.0 hrs. Background: In qPCR the cycle at which signal appears reflects the starting amount.

The test system of assay [6] is HepG2. Nature of the assay: Downregulation of FATP5 mRNA expression in FFA-induced human HepG2 cells at 5 to 10 uM pretreated with compound for 24 hrs followed by FFA-induction and measured after 24 hrs by qRT-PCR analysis. The conditions noted are these: dose 5-10 µM, time 48.0 hrs. The format is functional, cell-based.
In assay [7] the test system is HepG2. Kind of assay: Downregulation of FAS mRNA expression in FFA-induced human HepG2 cells at 5 to 10 uM pretreated with compound for 24 hrs followed by FFA-induction and measured after 24 hrs by qRT-PCR analysis. It counts as functional, cell-based. To be noted: dose 5-10 µM, time 48.0 hrs.
Assay [8] concerns HepG2. Nature of the assay: Downregulation of SCD1 mRNA expression in FFA-induced human HepG2 cells at 5 to 10 uM pretreated with compound for 24 hrs followed by FFA-induction and measured after 24 hrs by qRT-PCR analysis. The conditions noted are these: dose 5-10 µM, time 48.0 hrs. It counts as functional, cell-based.
Assay [9] deals with HepG2. Kind of assay: Upregulation of PPARalpha mRNA expression in FFA-induced human HepG2 cells at 5 to 10 uM pretreated with compound for 24 hrs followed by FFA-induction and measured after 24 hrs by qRT-PCR analysis. To be noted: dose 5-10 µM, time 48.0 hrs. The format is functional, cell-based.
Assay [10] has as its system HepG2. Kind of assay: Upregulation of ACOX1 mRNA expression in FFA-induced human HepG2 cells at 5 to 10 uM pretreated with compound for 24 hrs followed by FFA-induction and measured after 24 hrs by qRT-PCR analysis. To be noted: dose 5-10 µM, time 48.0 hrs. It counts as functional, cell-based.

The source made the active and inactive calls. The rule behind the calls is not given here.

Regarding `C/C(=C\[C@H](O)[C@H](O)[C@H](O)[C@H](O)[C@@H]1[C@@H]2[C@@H](CC(=O)[C@@H]1C)C[C@@H](C)C[C@H]2O)C(=O)O`, in the assay with HepG2 [1], the outcome was Active.

Take `C=C(C)CC(=O)O[C@@H]1C[C@H](C)C[C@@H]2CC(=O)[C@@H](C)[C@H]([C@@H]3O[C@H]3[C@@H](O)[C@H]3C=C(C)C(=O)O3)[C@H]21`: the result with HepG2 [1] was Active.

As for `Cc1ccc2c(c1)[C@H]1O[C@]3(O)CCO[C@](C)([C@H]1O)[C@]23C`, the result in the assay with HepG2 [1] was Active. Consider `C[C@@H]1C=C2C=C[C@]3(C)OCCC(=O)[C@]3(C)[C@H]2[C@@H](O)C1`, for which the outcome in the assay on HepG2 [1] was Active.

On to `C=C(C)CC(=O)O[C@@H]1C[C@H](C)C[C@@H]2CC(=O)[C@@H](C)[C@H]([C@@H]3O[C@H]3[C@H](O)[C@@H]3C=C(C)C(=O)O3)[C@H]21`, for which the result in the assay with HepG2 [1] was Active. In the case of `C[C@@H]1C=C2C=CC3OCCC(=O)[C@]3(C)[C@H]2[C@@H](O)[C@H]1O` (some centres undefined), the result in the assay with HepG2 [1] was Active. On the same count and under the same terms, in the case of `C[C@@H]1C=C2C=C[C@]3(CO)OCCC(=O)[C@]3(C)[C@H]2[C@@H](O)C1` it was “Active”. Take `C[C@H]1C[C@H](O)[C@H]2[C@@H](C=C[C@@](C)(O)[C@]2(C)C(=O)CCO)C1`: in the assay with HepG2 [1], the outcome was Active.

Take `C=C(C)CC(=O)O[C@@H]1C[C@H](C)C[C@@H]2CC(=O)[C@@H](C)[C@H]([C@@H]3O[C@H]3[C@H](O)[C@H]3C=C(C)C(=O)O3)[C@H]21`: the outcome in the assay with HepG2 [1] was Active.

Take `C\C(=C/C=C/C=C/[C@H]1[C@@H](C)[C@H](O)[C@@H](O)[C@H]2C[C@@H](C)C[C@@H](C)[C@H]12)C(=O)O`: the result with HepG2 [1], in the assay with HepG2 [3], with HepG2 [5], in the assay on HepG2 [6], in the assay with HepG2 [7] and in the assay with HepG2 [8] was Active. The outcome in the assay on HepG2 [9] and in the assay on HepG2 [10] was Active. Besides, the Activity in the assay on HepG2 [2] is 50%; with HepG2 [4] it was “Dose-Dependent Effect”.
